In the supplement of paper PMC10307832:

What was measured:
Experiment in all cases: relative viability (nuclei count vs DMSO), 5 days (fraction); higher = more cells survive
Dinaciclib + Pictilisib = compound: CCc1cnn2c(NCc3ccc[n+]([O-])c3)cc(N3CCCC[C@H]3CCO)nc12 [Dinaciclib] + CS(=O)(=O)N1CCN(Cc2cc3nc(-c4cccc5[nH]ncc45)nc(N4CCOCC4)c3s2)CC1 [Pictilisib] (partner 1 µM)
In short: (§1)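 Five library-drug doses in √10 steps were combined with a fixed anchor-drug dose, or a single drug was given alone, by pin tool to lung cancer cell lines in 1536-well plates the day after seeding. Nuclei were stained and counted after 5 days. Relative viability is the nuclei count in treated wells over that in vehicle wells, taken as the median of duplicate plates.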

Dinaciclib + Luminespib = compound: CCc1cnn2c(NCc3ccc[n+]([O-])c3)cc(N3CCCC[C@H]3CCO)nc12 [Dinaciclib] + CCNC(=O)c1noc(-c2cc(C(C)C)c(O)cc2O)c1-c1ccc(CN2CCOCC2)cc1 [Luminespib] (partner 0.01 µM)
In short: as §1

Dinaciclib + Linsitinib = compound: CCc1cnn2c(NCc3ccc[n+]([O-])c3)cc(N3CCCC[C@H]3CCO)nc12 [Dinaciclib] + C[C@]1(O)C[C@@H](c2nc(-c3ccc4ccc(-c5ccccc5)nc4c3)c3c(N)nccn32)C1 [Linsitinib] (partner 1 µM)
In short: as §1

Dinaciclib + Crizotinib = compound: CCc1cnn2c(NCc3ccc[n+]([O-])c3)cc(N3CCCC[C@H]3CCO)nc12 [Dinaciclib] + C[C@@H](Oc1cc(-c2cnn(C3CCNCC3)c2)cnc1N)c1c(Cl)ccc(F)c1Cl [Crizotinib] (partner 1 µM)
In short: as §1

Dinaciclib + Phenformin = compound: CCc1cnn2c(NCc3ccc[n+]([O-])c3)cc(N3CCCC[C@H]3CCO)nc12 [Dinaciclib] + N=C(N)NC(=N)NCCc1ccccc1 [Phenformin] (partner 250 µM)
In short: as §1

Cell Line	relative viability (Dinaciclib + Pictilisib; first compound 0.009487 µM)	relative viability (Dinaciclib + Pictilisib; first compound 0.03 µM)	relative viability (Dinaciclib + Pictilisib; first compound 0.09487 µM)	relative viability (Dinaciclib + Pictilisib; first compound 0.3 µM)	relative viability (Dinaciclib + Luminespib; first compound 0.009487 µM)	relative viability (Dinaciclib + Luminespib; first compound 0.03 µM)	relative viability (Dinaciclib + Luminespib; first compound 0.09487 µM)	relative viability (Dinaciclib + Luminespib; first compound 0.3 µM)	relative viability (Dinaciclib + Linsitinib; first compound 0.009487 µM)	relative viability (Dinaciclib + Linsitinib; first compound 0.03 µM)	relative viability (Dinaciclib + Linsitinib; first compound 0.09487 µM)	relative viability (Dinaciclib + Linsitinib; first compound 0.3 µM)	relative viability (Dinaciclib + Crizotinib; first compound 0.009487 µM)	relative viability (Dinaciclib + Crizotinib; first compound 0.03 µM)	relative viability (Dinaciclib + Crizotinib; first compound 0.09487 µM)	relative viability (Dinaciclib + Crizotinib; first compound 0.3 µM)	relative viability (Dinaciclib + Phenformin; first compound 0.009487 µM)	relative viability (Dinaciclib + Phenformin; first compound 0.03 µM)	relative viability (Dinaciclib + Phenformin; first compound 0.09487 µM)	relative viability (Dinaciclib + Phenformin; first compound 0.3 µM)
LU99A	0.283	0.134	0.109	0.122	0.177	0.149	0.12	0.124	0.336	0.154	0.145	0.141	0.315	0.131	0.125	0.122	0.709	0.14	0.0878	0.132
SW 1573	0.452	0.225	0.0748	0.064	0.126	0.0666	0.0548	0.0868	0.679	0.109	0.0988	0.0866	0.608	0.0718	0.066	0.0807	0.303	0.0685	0.077	0.0659
HOP-62	0.583	0.092	0.0651	0.0405	0.778	0.193	0.0765	0.0749	1.01	0.203	0.0716	0.0565	0.841	0.236	0.0602	0.0489	0.54	0.299	0.0816	0.0886
UMC-11	0.217	0.145	0.132	0.136	0.271	0.177	0.158	0.174	0.282	0.167	0.169	0.168	0.157	0.0965	0.094	0.0987	0.214	0.197	0.192	0.185
LCLC-103H	0.572	0.463	0.147	0.143	1.08	0.473	0.12	0.102	1.13	0.934	0.18	0.172	1.06	1.03	0.329	0.123	0.292	0.327	0.11	0.0875
NCI-H1734	0.396	0.188	0.124	0.128	0.165	0.129	0.119	0.0997	0.813	0.328	0.158	0.132	0.464	0.163	0.1	0.12	0.318	0.14	0.113	0.115
EKVX	0.407	0.227	0.12	0.113	0.858	0.705	0.137	0.101	0.961	0.51	0.0946	0.137	0.749	0.454	0.103	0.118	0.239	0.218	0.162	0.091
HARA	0.529	0.0709	0.0524	0.031	0.367	0.0789	0.0403	0.0571	0.758	0.0716	0.0363	0.038	0.717	0.103	0.0536	0.0685	0.518	0.129	0.0472	0.0313
EMC-BAC-2	0.621	0.303	0.136	0.15	1.15	0.382	0.145	0.16	0.868	0.235	0.14	0.161	0.71	0.187	0.146	0.15	0.472	0.199	0.13	0.166
PC-14	0.436	0.145	0.0318	0.0249	0.146	0.0837	0.0681	0.0507	0.873	0.244	0.0973	0.0775	0.651	0.241	0.0877	0.0668	0.279	0.0631	0.0459	0.0379
NCI-H520	0.25	0.169	0.0942	0.165	0.239	0.231	0.222	0.217	0.615	0.128	0.129	0.177	0.573	0.102	0.124	0.128	0.476	0.203	0.167	0.166
NCI-H1755	0.387	0.132	0.127	0.143	0.395	0.624	0.147	0.14	0.991	0.429	0.166	0.171	0.8	0.289	0.147	0.147	0.545	0.405	0.224	0.218
NCI-H2087	0.643	0.143	0.165	0.151	0.189	0.107	0.0516	0.0567	0.69	0.164	0.155	0.133	1.3	0.136	0.128	0.13	0.588	0.112	0.118	0.107
NCI-H2023	0.26	0.0718	0.0607	0.0559	0.561	0.058	0.055	0.0469	0.442	0.0999	0.0724	0.0763	0.93	0.0702	0.05	0.0622	0.384	0.0797	0.0696	0.0629
CAL-12T	0.201	0.105	0.122	0.116	0.133	0.085	0.0815	0.0961	0.452	0.175	0.112	0.145	0.503	0.0856	0.0861	0.103	0.188	0.103	0.107	0.097
NCI-H2085	0.424	0.281	0.221	0.215	0.417	0.195	0.186	0.169	0.94	0.188	0.176	0.202	1.02	0.313	0.208	0.236	0.72	0.304	0.232	0.202

Cell Line	relative viability (Dinaciclib + Pictilisib; first compound 0.009487 µM)	relative viability (Dinaciclib + Pictilisib; first compound 0.03 µM)	relative viability (Dinaciclib + Pictilisib; first compound 0.09487 µM)	relative viability (Dinaciclib + Pictilisib; first compound 0.3 µM)	relative viability (Dinaciclib + Luminespib; first compound 0.009487 µM)	relative viability (Dinaciclib + Luminespib; first compound 0.03 µM)	relative viability (Dinaciclib + Luminespib; first compound 0.09487 µM)	relative viability (Dinaciclib + Luminespib; first compound 0.3 µM)	relative viability (Dinaciclib + Linsitinib; first compound 0.009487 µM)	relative viability (Dinaciclib + Linsitinib; first compound 0.03 µM)	relative viability (Dinaciclib + Linsitinib; first compound 0.09487 µM)	relative viability (Dinaciclib + Linsitinib; first compound 0.3 µM)	relative viability (Dinaciclib + Crizotinib; first compound 0.009487 µM)	relative viability (Dinaciclib + Crizotinib; first compound 0.03 µM)	relative viability (Dinaciclib + Crizotinib; first compound 0.09487 µM)	relative viability (Dinaciclib + Crizotinib; first compound 0.3 µM)	relative viability (Dinaciclib + Phenformin; first compound 0.009487 µM)	relative viability (Dinaciclib + Phenformin; first compound 0.03 µM)	relative viability (Dinaciclib + Phenformin; first compound 0.09487 µM)	relative viability (Dinaciclib + Phenformin; first compound 0.3 µM)
NCI-H650	0.872	0.218	0.135	0.134	0.54	0.185	0.112	0.0731	0.481	0.161	0.139	0.124	0.638	0.152	0.131	0.135	0.407	0.201	0.159	0.154
LCLC-97TM1	0.209	0.116	0.109	0.0963	0.459	0.111	0.116	0.109	0.168	0.12	0.126	0.107	0.346	0.092	0.0991	0.103	0.391	0.257	0.153	0.129
NCI-H2126	0.474	0.246	0.198	0.199	0.873	0.202	0.201	0.21	0.692	0.555	0.197	0.207	1.01	0.565	0.213	0.215	0.443	0.258	0.221	0.21
201T	0.714	0.372	0.308	0.265	1.2	0.342	0.24	0.256	1.11	1	0.362	0.368	0.938	0.739	0.265	0.313	0.418	0.415	0.257	0.238
NCI-H1915	0.658	0.158	0.121	0.102	0.292	0.142	0.0885	0.093	1.06	0.279	0.136	0.127	0.706	0.117	0.103	0.102	0.295	0.149	0.13	0.133
BEN	0.621	0.388	0.173	0.191	0.323	0.221	0.174	0.133	1.01	0.68	0.216	0.21	1	0.512	0.18	0.215	0.235	0.217	0.174	0.209
NCI-H2347	0.455	0.292	0.327	0.179	0.249	0.12	0.105	0.118	1.03	0.355	0.273	0.266	0.734	0.146	0.202	0.156	0.468	0.131	0.193	0.209
H3255	0.415	0.261	0.164	0.182	0.813	0.72	0.204	0.18	1.09	0.493	0.177	0.186	0.842	0.194	0.173	0.197	0.333	0.305	0.315	0.28
NCI-H441	0.589	0.126	0.111	0.115	0.262	0.18	0.177	0.193	0.811	0.129	0.115	0.113	0.595	0.134	0.0914	0.101	0.688	0.184	0.164	0.136
NCI-H2228	0.484	0.0919	0.0936	0.1	0.147	0.127	0.116	0.0939	0.715	0.466	0.109	0.13	0.526	0.178	0.135	0.103	0.256	0.11	0.0988	0.103
NCI-H1975	0.166	0.0983	0.102	0.102	0.237	0.145	0.12	0.135	0.632	0.265	0.13	0.141	0.765	0.222	0.139	0.129	0.364	0.153	0.113	0.1
NCI-H647	0.493	0.0803	0.0566	0.0473	0.133	0.0786	0.049	0.0752	0.674	0.0709	0.0658	0.0602	0.606	0.0725	0.0657	0.0722	0.302	0.0795	0.059	0.0723
A-427	0.564	0.0973	0.0666	0.065	0.554	0.0941	0.0692	0.0782	1.09	0.512	0.0865	0.0756	0.72	0.12	0.057	0.0481	0.328	0.094	0.0857	0.0889
LXF-289	0.843	0.0778	0.0596	0.0483	0.642	0.106	0.068	0.0731	0.994	0.315	0.0869	0.071	0.754	0.274	0.0748	0.0784	0.538	0.229	0.0748	0.0626
NCI-H727	0.297	0.173	0.196	0.134	0.404	0.253	0.301	0.282	0.268	0.193	0.0908	0.158	0.534	0.171	0.174	0.183	0.648	0.284	0.256	0.21
